Legend:
VERO cells (ATCC CRL-81) = assay: Vero cell toxicity; type: cell-based; conditions: 72 hours exposure
Experimental: Cytotoxicity for a mammalian cell line was determined by exposing VERO cells (ATCC CRL-81) to serial dilutions of test compounds for 72 hours, followed by addition of resazurin and measurement of fluorescence after 4 hours incubation (Choules, et al., Antimnicrob. Agents Chemother. 2019, 63, e02204-02218).

MTB H37Rv ATCC 27294 = assay: MIC, microplate Alamar Blue assay (MABA); type: cell-based, Mycobacterium tuberculosis
DPX2 cells = conditions: for DPX2 Viability @ 6.25 μM: 24 h; for DPX2 Viability @ 25 μM: human
[1] = Mycobacterium tuberculosis, MTB H37Rv ATCC 27294, microplate Alamar Blue assay, lowest concentration giving ≥90% reduction in fluorescence

| SMILES | IC50 (VERO cells (ATCC CRL-81); Chlorocebus sabaeus, Vero) [µM] | MIC90 MABA Rel to RMP (MTB H37Rv ATCC 27294) | MIC90 (MTB H37Rv ATCC 27294; [1]) [nM] | DPX2 Viability @ 6.25 μM (DPX2 cells) [%] | DPX2 Viability @ 25 μM (DPX2 cells) [%] | MIC (MTB H37Rv ATCC 27294; Mycobacterium tuberculosis, MTB H37Rv ATCC 27294, microplate Alamar Blue assay, lowest concentration giving ≥90% reduction in fluorescence, read-out: MIC90 MABA) [nM] | IC50 (VERO cells (ATCC CRL-81)) [µM] | MIC90 (MTB H37Rv ATCC 27294; MTB H37Rv ATCC 27294, microplate Alamar Blue assay, lowest concentration giving ≥90% reduction in fluorescence) [nM] |
| --- | --- | --- | --- | --- | --- | --- | --- | --- |
| CO[C@H]1/C=C/O[C@@]2(C)Oc3c(C)c(O)c4c(=O)c(c5oc6cccc(OCc7ccc(CN8CCOCC8)cc7)c6nc-5c4c3C2=O)NC(=O)/C(C)=C\C=C\[C@H](C)[C@H](O)[C@@H](C)[C@@H](O)[C@@H](C)[C@H](OC(C)=O)[C@@H]1C [Compound 16d, (7S,9E,11S,12R,13S,14R,15R,16R,17S,18S,19E,21Z)-2,15,17-Trihydroxy-11-methoxy-3,7,12,14,16,18,22-heptamethyl-32-({4-[(morpholin-4-yl)methyl]phenyl}methoxy)-6,23,37-trioxo-8,27,38-trioxa-24,34-diazahexacyclo[23.11.1.1^4,7.0^5,36.0^26,35.0^28,33]octatriaconta-1(36)2,4,9,19,21,25,28,30,32,34-undecaen-13-yl acetate] | > 10 | 0.07 | 3.7 | 79 | 59 | – | – | – |
| CO[C@H]1/C=C/O[C@@]2(C)Oc3c(C)c(O)c4c(=O)c(c5oc6cccc(OCc7ccc(CN8CCN(C)CC8)cc7)c6nc-5c4c3C2=O)NC(=O)/C(C)=C\C=C\[C@H](C)[C@H](O)[C@@H](C)[C@@H](O)[C@@H](C)[C@H](OC(C)=O)[C@@H]1C [Compound 16e, (7S,9E,11S,12R,13S,14R,15R,16R,17S,18S,19E,21Z)-2,15,17-trihydroxy-11-methoxy-3,7,12,14,16,18,22-heptamethyl-32-({4-[(4-methylpiperazin-1-yl)methyl]phenyl}methoxy)-6,23,37-trioxo-8,27,38-trioxa-24,34-diazahexacyclo[23.11.1.1^4,7.0^5,36.0^26,35.0^28,33]octatriaconta-1,3,5(36)9,19,21,25,28,30,32,34-undecaen-13-yl acetate] | > 10 | 0.16 | 6.4 | 63 | 41 | – | – | – |
| CO[C@H]1/C=C/O[C@@]2(C)Oc3c(C)c(O)c4c(=O)c(c5oc6cc(N7CCN(C(=O)C(C)(C)C)CC7)cc(OCc7ccc(CN8CCOCC8)cc7)c6nc-5c4c3C2=O)NC(=O)/C(C)=C\C=C\[C@H](C)[C@H](O)[C@@H](C)[C@@H](O)[C@@H](C)[C@H](OC(C)=O)[C@@H]1C [Compound 17f, (7S,9E,11S,12R,13S,14R,15R,16R,17S,18S,19E,21Z)-30-[4-(2,2-Dimethylpropanoyl)-piperazin-1-yl]-2,15,17-trihydroxy-11-methoxy-3,7,12,14,16,18,22-heptamethyl-32-({4-[(morpholin-4-yl)methyl]phenyl}methoxy)-6,23,37-trioxo-8,27,38-trioxa-24,34-diazahexacyclo[23.11.1.1^4,7.0^5,36.0^26,35.0^28,33]octatriaconta-1(36)2,4,9,19,21,25,28,30,32,34-undecaen-13-yl acetate] | > 10 | 1.0 | – | 85 | 71 | 27 | – | – |
| CO[C@H]1/C=C/O[C@@]2(C)Oc3c(C)c(O)c4c(=O)c(c5oc6cc(C=O)cc(N7CCN(CC(C)C)CC7)c6nc-5c4c3C2=O)NC(=O)/C(C)=C\C=C\[C@H](C)[C@H](O)[C@@H](C)[C@@H](O)[C@@H](C)[C@H](OC(C)=O)[C@@H]1C [Compound 30d, (7S,9E,11S,12R,13S,14R,15R,16R,17S,1S,19E,21Z)-30-Formyl-2,15,17-trihydroxy-11-methoxy-3,7,12,14,16,18,22-heptamethyl-32-[4-(2-methylpropyl)piperazin-1-yl]-6,23,37-trioxo-8,27,38-trioxa-24,34-diazahexacyclo[23.11.1.1^4,7.0^5,36.0^26,35.0^28,33]octatriaconta-1(36)2,4,9,19,21,25,28,30,32,34-undecaen-13-yl acetate] | – | <0.6 | – | – | – | – | > 8 | <16 |

— patent US20250188092A1, “RIFAMYCIN ANALOGS” (THE REGENTS OF THE UNIVERSITY OF MICHIGAN, priority 2021, published 2025)
